Measured values as given in US10934285B2, “Compounds and compositions for inhibiting the activity of SHP2” (Novartis AG, priority 2016, dated 2021).

What follows are molecules tested against SHP2 (Homo sapiens (Human), UniProt Q06124) (assay: SHP2 Allosteric Inhibition Assay). Settings: 0.5 nM SHP2 activated with 0.5 μM peptide IRS1_pY1172(dPEG8)pY1222; surrogate substrate DiFMUP; prompt fluorescence.
Format: biochemical
From the text: SHP2 Allosteric Inhibition Assay
SHP2 is allosterically activated through binding of bis-tyrosyl-phorphorylated peptides to its Src Homology 2 (SH2) domains. The latter activation step leads to the release of the auto-inhibitory interface of SHP2, which in turn renders the SHP2 protein tyrosine phosphatase (PTP) active and available for substrate recognition and reaction catalysis. The catalytic activity of SHP2 was monitored using the surrogate substrate DiFMUP in a prompt fluorescence assay format.
After 30-60 minutes incubation at 25° C., the surrogate substrate DiFMUP (Invitrogen, cat #D6567) was added to the reaction and incubated at 25° C. for 30 minutes. […] The inhibitor dose response curves were analyzed using normalized IC50 regression curve fitting with control based normalization.

Chain of SHP2 (Q06124 whole entry): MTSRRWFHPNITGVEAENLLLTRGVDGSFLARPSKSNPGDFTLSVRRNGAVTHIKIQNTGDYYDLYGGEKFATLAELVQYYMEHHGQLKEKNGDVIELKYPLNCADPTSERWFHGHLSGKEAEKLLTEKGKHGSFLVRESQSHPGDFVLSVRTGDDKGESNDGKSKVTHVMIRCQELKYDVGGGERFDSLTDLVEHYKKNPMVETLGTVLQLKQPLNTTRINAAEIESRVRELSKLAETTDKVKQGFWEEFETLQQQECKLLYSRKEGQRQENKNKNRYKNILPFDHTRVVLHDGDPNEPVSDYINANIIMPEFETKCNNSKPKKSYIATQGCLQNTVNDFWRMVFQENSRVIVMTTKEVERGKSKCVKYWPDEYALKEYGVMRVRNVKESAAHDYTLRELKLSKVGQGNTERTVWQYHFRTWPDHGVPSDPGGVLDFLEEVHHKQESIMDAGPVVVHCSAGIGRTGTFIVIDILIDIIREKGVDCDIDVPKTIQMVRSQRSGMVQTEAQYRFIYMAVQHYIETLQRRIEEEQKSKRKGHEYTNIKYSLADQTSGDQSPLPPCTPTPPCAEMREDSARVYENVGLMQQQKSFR

Row | Compound | IC50
1 | C[C@@H]1OCC2(CCN(c3cnc(Sc4cccc(NC(=O)c5c(O)nc6n(c5=O)CCCC6)c4Cl)c(N)n3)CC2)[C@@H]1N [Example 27, N-(3-((3-Amino-5-((3S,4S)-4-amino-3-methyl-2-oxa-8-azaspiro[4.5]decan-8-yl)pyrazin-2-yl)thio)-2-chlorophenyl)-2-hydroxy-4-oxo-6,7,8,9-tetrahydro-4H-pyrido[1,2-a]pyrimidine-3-carboxamide] | 23 nM
2 | Nc1nc(N2CCC3(CC2)CC(F)(F)C[C@H]3N)cnc1Sc1cccc(NC(=O)c2c(O)nc3n(c2=O)CCCC3)c1Cl [Example 28, (R)-N-(3-((3-amino-5-(1-amino-3,3-difluoro-8-azaspiro[4.5]decan-8-yl)pyrazin-2-yl)thio)-2-chlorophenyl)-2-hydroxy-4-oxo-6,7,8,9-tetrahydro-4H-pyrido[1,2-a]pyrimidine-3-carboxamide] | 42 nM
3 | CC[C@@H]1OCC2(CCN(c3cnc(Sc4cccc(NC(=O)c5c(O)nc6n(c5=O)CCCC6)c4Cl)c(N)n3)CC2)[C@@H]1N [Example 29, N-(3-((3-amino-5-((3S,4S)-4-amino-3-ethyl-2-oxa-8-azaspiro[4.5]decan-8-yl)pyrazin-2-yl)thio)-2-chlorophenyl)-2-hydroxy-4-oxo-6,7,8,9-tetrahydro-4H-pyrido[1,2-a]pyrimidine-3-carboxamide] | 12 nM
4 | C[C@@H]1CC2(CCN(c3cnc(Sc4cccc(NC(=O)c5c(O)nc6n(c5=O)CCCC6)c4Cl)c(N)n3)CC2)[C@H](N)[C@H]1F [Example 30, N-(3-((3-amino-5-((1S,2S,3R)-1-amino-2-fluoro-3-methyl-8-azaspiro[4.5]decan-8-yl)pyrazin-2-yl)thio)-2-chlorophenyl)-2-hydroxy-4-oxo-6,7,8,9-tetrahydro-4H-pyrido[1,2-a]pyrimidine-3-carboxamide] | 16 nM
5 | CC1(CN)CCN(c2nnc(Sc3cccc(NC(=O)c4c(O)nc5ccccc5c4O)c3Cl)c(N)n2)CC1 [Example 31, N-(3-((5-amino-3-(4-(aminomethyl)-4-methylpiperidin-1-yl)-1,2,4-triazin-yl)thio)-2-chlorophenyl)-2,4-dihydroxyquinoline-3-carboxamide] | 38 nM
6 | CC1(CN)CCN(c2nnc(Sc3cccc(NC(=O)c4c(O)nc5sccn5c4=O)c3Cl)c(N)n2)CC1 [Example 32, N-(3-((5-amino-3-(4-(aminomethyl)-4-methylpiperidin-1-yl)-1,2,4-triazin-6-yl)thio)-2-chlorophenyl)-7-hydroxy-5-oxo-5H-thiazolo[3,2-a]pyrimidine-6-carboxamide] | 8 nM
7 | CC1(CN)CCN(c2nnc(Sc3cccc(NC(=O)c4c(O)nc5ccccn5c4=O)c3Cl)c(N)n2)CC1 [Example 33, N-(3-((5-amino-3-(4-(aminomethyl)-4-methylpiperidin-1-yl)-1,2,4-triazin-6-yl)thio)-2-chlorophenyl)-2-hydroxy-4-oxo-4H-pyrido[1,2-a]pyrimidine-3-carboxamide] | 10 nM
8 | CC1(CN)CCN(c2nnc(Sc3cccc(NC(=O)c4c(O)nc5cnccn5c4=O)c3Cl)c(N)n2)CC1 [Example 34, N-(3-((5-amino-3-(4-(aminomethyl)-4-methylpiperidin-1-yl)-1,2,4-triazin-6-yl)thio)-2-chlorophenyl)-2-hydroxy-4-oxo-4H-pyrazino[1,2-a]pyrimidine-3-carboxamide] | 14 nM
9 | CC1(CN)CCN(c2nnc(Sc3cccc(NC(=O)c4c(O)nc5[nH]ccn5c4=O)c3Cl)c(N)n2)CC1 [Example 35, N-(3-((5-amino-3-(4-(aminomethyl)-4-methylpiperidin-1-yl)-1,2,4-triazin-6-yl)thio)-2-chlorophenyl)-7-hydroxy-5-oxo-1,5-dihydroimidazo[1,2-a]pyrimidine-6-carboxamide] | 35 nM
10 | CC1(CN)CCN(c2nnc(Sc3cccc(NC(=O)c4c(O)nc5n(c4=O)CCCC5)c3Cl)c(N)n2)CC1 [Example 36, N-(3-((5-amino-3-(4-(aminomethyl)-4-methylpiperidin-1-yl)-1,2,4-triazin-6-yl)thio)-2-chlorophenyl)-2-hydroxy-4-oxo-6,7,8,9-tetrahydro-4H-pyrido[1,2-a]pyrimidine-3-carboxamide] | 12 nM
11 | CC1(CN)CCN(c2nnc(Sc3cccc(NC(=O)C4=C(O)NC5CCCCN5C4=O)c3Cl)c(N)n2)CC1 (stereo not drawn) [Example 37, N-(3-((5-amino-3-(4-(aminomethyl)-4-methylpiperidin-1-yl)-1,2,4-triazin-6-yl)thio)-2-chlorophenyl)-2-hydroxy-4-oxo-4,6,7,8,9,9a-hexahydro-1H-pyrido[1,2-a]pyrimidine-3-carboxamide] | 6 nM
12 | CC1(CN)CCN(c2nnc(Sc3cccc(NC(=O)c4c(O)nc5c6ccccc6ccn5c4=O)c3Cl)c(N)n2)CC1 [Example 39, N-(3-((5-amino-3-(4-(aminomethyl)-4-methylpiperidin-1-yl)-1,2,4-triazin-6-yl)thio)-2-chlorophenyl)-2-hydroxy-4-oxo-4H-pyrimido[2,1-a]isoquinoline-3-carboxamide] | 13 nM
13 | CC1(CN)CCN(c2nnc(Sc3cccc(NC(=O)c4ccc5ccccn5c4=O)c3Cl)c(N)n2)CC1 [Example 40, N-(3-((5-amino-3-(4-(aminomethyl)-4-methylpiperidin-1-yl)-1,2,4-triazin-6-yl)thio)-2-chlorophenyl)-4-oxo-4H-quinolizine-3-carboxamide] | 173 nM
14 | CC1(N)CCN(c2nnc(Sc3cccc(NC(=O)c4c(O)nc5ccccn5c4=O)c3Cl)c(N)n2)CC1 [Example 41, N-(3-((5-amino-3-(4-amino-4-methylpiperidin-1-yl)-1,2,4-triazin-6-yl)thio)-2-chlorophenyl)-2-hydroxy-4-oxo-4H-pyrido[1,2-a]pyrimidine-3-carboxamide] | 11 nM
15 | Nc1nc(N2CCC3(CCC[C@H]3N)CC2)nnc1Sc1cccc(NC(=O)c2c(O)nc3ccccn3c2=O)c1Cl [Example 42, (R)-N-(3-((5-amino-3-(1-amino-8-azaspiro[4.5]decan-8-yl)-1,2,4-triazin-6-yl)thio)-2-chlorophenyl)-2-hydroxy-4-oxo-4H-pyrido[1,2-a]pyrimidine-3-carboxamide] | 16 nM
16 | Nc1nc(N2CCC3(CCC[C@H]3N)CC2)nnc1Sc1cccc(NC(=O)c2c(O)nc3n(c2=O)CCCC3)c1Cl [Example 43, (R)-N-(3-((5-amino-3-(1-amino-8-azaspiro[4.5]decan-8-yl)-1,2,4-triazin-6-yl)thio)-2-chlorophenyl)-2-hydroxy-4-oxo-6,7,8,9-tetrahydro-4H-pyrido[1,2-a]pyrimidine-3-carboxamide] | 1.5 nM
17 | CC1(N)CCN(c2cnc(Sc3cccc(NC(=O)c4c(O)nc5n(c4=O)CCCC5)c3Cl)cn2)CC1 [Example 44, N-(3-((5-(4-amino-4-methylpiperidin-1-yl)pyrazin-2-yl)thio)-2-chlorophenyl)-2-hydroxy-4-oxo-6,7,8,9-tetrahydro-4H-pyrido[1,2-a]pyrimidine-3-carboxamide] | 14 nM
18 | CC1(CN)CCN(c2cnc(Sc3cccc(NC(=O)c4c(O)nc5n(c4=O)CCCC5)c3Cl)cn2)CC1 [Example 45, N-(3-((5-(4-(aminomethyl)-4-methylpiperidin-1-yl)pyrazin-2-yl)thio)-2-chlorophenyl)-2-hydroxy-4-oxo-6,7,8,9-tetrahydro-4H-pyrido[1,2-a]pyrimidine-3-carboxamide] | 7 nM
19 | CC1(N)CCN(c2nc3ccc(Sc4cccc(NC(=O)C5=C(O)CN(c6ccccc6)C5=O)c4)nc3[nH]2)CC1 [Example 46, N-(3-((2-(4-Amino-4-methylpiperidin-1-yl)-3H-imidazo[4,5-b]pyridin-5-yl)thio)phenyl)-4-hydroxy-2-oxo-1-phenyl-2,5-dihydro-1H-pyrrole-3-carboxamide] | 70 nM
20 | CC1(N)CCN(c2nc3ccc(Sc4cccc(NC(=O)C5=C(O)CN(c6ccccc6)C5=O)c4Cl)nc3[nH]2)CC1 [Example 47, N-(3-((2-(4-amino-4-methylpiperidin-1-yl)-3H-imidazo[4,5-b]pyridin-5-yl)thio)-2-chlorophenyl)-4-hydroxy-2-oxo-1-phenyl-2,5-dihydro-1H-pyrrole-3-carboxamide] | 3 nM
21 | O=C(Nc1cccc(Sc2ccc3nc(N4CCCCC4)[nH]c3n2)c1Cl)c1c(O)nc2ccccn2c1=O [Example 48, N-(2-chloro-3-((2-(piperidin-1-yl)-3H-imidazo[4,5-b]pyridin-5-yl)thio)phenyl)-2-hydroxy-4-oxo-4H-pyrido[1,2-a]pyrimidine-3-carboxamide] | 61 nM
22 | O=C(Nc1cccc(Sc2ccc3nc(N4CCCCC4)[nH]c3n2)c1Cl)c1c(O)c2nccnc2[nH]c1=O [Example 49, N-(2-chloro-3-((2-(piperidin-1-yl)-3H-imidazo[4,5-b]pyridin-5-yl)thio)phenyl)-8-hydroxy-6-oxo-5,6-dihydropyrido[2,3-b]pyrazine-7-carboxamide] | 36 nM
23 | CC1(N)CCN(c2cnc(Sc3ccc(NC(=O)C4=C(O)CN(c5ccccc5)C4=O)cc3Cl)c(N)n2)CC1 [Example 50, N-(4-((3-Amino-5-(4-amino-4-methylpiperidin-1-yl)pyrazin-2-yl)thio)-3-chlorophenyl)-4-hydroxy-2-oxo-1-phenyl-2,5-dihydro-1H-pyrrole-3-carboxamide] | 70 nM
24 | CC1(CN)CCN(c2nnc(Sc3cccc(NC(=O)C4=C(O)CN(c5ccccc5)C4=O)c3Cl)c(N)n2)CC1 [Example 51, N-(3-((5-amino-3-(4-(aminomethyl)-4-methylpiperidin-1-yl)-1,2,4-triazin-6-yl)thio)-2-chlorophenyl)-4-hydroxy-2-oxo-1-phenyl-2,5-dihydro-1H-pyrrole-3-carboxamide] | 12 nM
